Experimental findings from article PMC6881254, “ABCA1 transporter reduces amphotericin B cytotoxicity in mammalian cells” (Cellular and Molecular Life Sciences: CMLS, 2019) are described below.

The structures appear in SMILES notation. ≈ marks a conversion by molar mass, not a printed value. Like-named read-outs stand apart in the source and are kept apart here.

For one test, the system named is Raw 264.7 macrophages. The test can be described thus: AmB cytotoxicity, MTT assay in Raw 264.7 macrophages. The format is cell-based, murine. Particulars: Mus musculus, RAW264.7, AmB 3 h, read-out: IC50 (cell viability, MTT). The procedure: (§1) A1G and MMG cell lines, mock and GW3965-treated macrophages were seeded in triplicate in 96-well plates at 1 × 10^4 cells/well for CHO cells and 2 × 10^4 cells for Raw 264.7 macrophages and incubated in complete Ham’s F-12 medium at 37 °C, 5% CO2 overnight to allow the cells to attach to the plate. The medium was then removed, AmB was added in complete Ham’s F-12 medium (or in ΔFBS medium, see next paragraph) in different concentrations (from 0 to 40 µg/mL) and cells were incubated for 3 h at 37 °C. For probucol treatment, the cells were preincubated with 10 µM probucol in complete Ham’s F-12 medium at 37 °C, 5% CO2 for 2 h. Then, the medium was removed and AmB was added in different concentrations (from 0 to 40 µg/mL) in complete Ham’s F-12 medium containing 10 µM probucol and cells were incubated for additional 3 h at 37 °C, 5% CO2. […] Plates were shaken for 10 min before reading them on a UVM 340 microplate reader (Biogenet) at 550 nm with a reference wavelength of 630 nm. […]
(§2) All mathematical and statistical analysis was performed using the GraphPad Prism 7 software package (GraphPad). […] The statistical significance of differences was assessed either by two-way ANOVA or by t test. […]
Cells were exposed to increased concentrations of AmB, ranging from 0 to 40 µg/mL, for 3 h and then the viability was analyzed by MTT assay. […]

For test [1], the system named is A1G cells. As to the kind of experiment: AmB cytotoxicity, MTT assay in A1G cells (CHO-K1 stably expressing ABCA1-GFP). It is filed as cell-based, Chinese hamster. Particulars: Cricetulus griseus, ± SE. As for the experimental part: (§3) A1G and MMG cell lines, mock and GW3965-treated macrophages were seeded in triplicate in 96-well plates at 1 × 10^4 cells/well for CHO cells and 2 × 10^4 cells for Raw 264.7 macrophages and incubated in complete Ham’s F-12 medium at 37 °C, 5% CO2 overnight to allow the cells to attach to the plate. […] For probucol treatment, the cells were preincubated with 10 µM probucol in complete Ham’s F-12 medium at 37 °C, 5% CO2 for 2 h. Then, the medium was removed and AmB was added in different concentrations (from 0 to 40 µg/mL) in complete Ham’s F-12 medium containing 10 µM probucol and cells were incubated for additional 3 h at 37 °C, 5% CO2. After incubation, the medium was removed and 3-[4,5-dimethylthiazol-2-yl]-2,5-diphenyltetrazolium bromide (MTT, 0.5 mg/mL, Sigma-Aldrich) in complete Ham’s F-12 was added. Cells were incubated for 4 h at 37 °C, then MTT was removed carefully and the formazan crystals were dissolved in DMSO. Plates were shaken for 10 min before reading them on a UVM 340 microplate reader (Biogenet) at 550 nm with a reference wavelength of 630 nm. The cell viability was estimated as the percentage of the control, which was the cells untreated with any agents (100%).
(§4) To lower the cholesterol content in the cells, A1G and MMG cell lines were seeded at either 1 × 10^4 cells/well in a 96-well plate (cytotoxicity) or 4 × 10^5 cells/well (cholesterol content) in a 6-well plate in complete Ham’s F-12 medium for 8 h to allow the cells to attach to the plate. Cells were then washed three times with Ham’s F-12 medium supplemented with delipidated serum (Biowest) (ΔFBS medium) and incubated with 10 µM zaragozic acid (ZA) in ΔFBS medium for 16 h at 37 °C, 5% CO2. To reload the plasma membrane with cholesterol, cells after ZA treatment were washed three times with ΔFBS medium and incubated with 100 µM cholesterol–1 mM methyl-β-cyclodextrin complex in ΔFBS medium for 30 min at 37 °C, 5% CO2. As a control, cells were incubated for 16 h with only ΔFBS medium at 37 °C, 5% CO2. After treatment, cells were either processed with AmB cytotoxicity MTT assay or lysed as described for cholesterol content measurement.
(§5) All mathematical and statistical analysis was performed using the GraphPad Prism 7 software package (GraphPad). For IC50 value determination, a nonlinear fit (inhibitor vs. normalized response with variable slope) of cell viability in the function of AmB decreased concentrations was applied. The statistical significance of differences was assessed either by two-way ANOVA or by t test. For all tests, the significance level (alpha, α) was set to 0.05. Significant differences are indicated in individual graphs with p values as follows: ****p < 0.0001, ***p < 0.001, **p < 0.01, *p < […]. If the differences were not significant, nothing is stated. For each result, an appropriate description of the analysis appears in the figure legend.
For orientation: Tetrazolium dyes change colour on reduction, which living cells bring about.

The subject of test [2] is MMG cells. The test can be described thus: AmB cytotoxicity, MTT assay in MMG cells (CHO-K1 stably expressing non-active ABCA1MM-GFP). The format is cell-based, Chinese hamster. Particulars: Cricetulus griseus, ± SE. The procedure:
as §3, §4, §5

For the next test, the system named is CHO-K1 wild-type cells. The test can be described thus: AmB cytotoxicity, MTT assay in CHO-K1 wild-type cells. The format is cell-based, Chinese hamster. Particulars: Cricetulus griseus, AmB 3 h, read-out: IC50 (cell viability, MTT). As for the experimental part: as §1, with “CO2. After incubation, the medium was removed and 3-[4,5-dimethylthiazol-2-yl]-2,5-diphenyltetrazolium bromide (MTT, 0.5 mg/mL, Sigma-Aldrich) in complete Ham’s F-12 was added.” for “CO2.”
as §2

In test [3] the test system is A1G cells. As to the kind of experiment: [3H]-cholesterol efflux to AmB as acceptor in A1G cells. The format is cell-based, Chinese hamster. The note with it: 20 µg/mL AmB. The procedure:
(§6) The [^3H]-cholesterol efflux protocol was adapted from Yang and Gelissen. Briefly, A1G and MMG cells were seeded in 0.5 mL of complete Ham’s F12 medium at 5 × 10^4 cells/well in 24-well plates and grown overnight at 37 °C, 5% CO2. The next day, the cell culture medium was replaced either with 0.25 mL of complete Ham’s F12 medium or complete Ham’s F12 medium containing 1 µCi/mL of [^3H]-cholesterol (Perkin Elmer) and incubated for 24 h at 37 °C, 5% CO2. On the last day, the cell medium was removed, and the cells were washed three times with PBS buffer (with intermediate 15 min incubation in PBS buffer). Afterwards, cells were incubated for 3 h in 0.25 mL of complete Ham’s F12 medium containing (or not, in controls) 20 µg/mL of AmB at 37 °C, 5% CO2. […] One hundred fifty microliters of each of cell medium and cell lysate were added to 5 mL of Ecolite + scintillation cocktail (MPBIO) and radioactivity was counted in CPM mode using a Beckman LS analyzer (Beckman Coulter). After subtraction of background radioactivity, the percentage of [^3H]-cholesterol efflux was calculated according to the formula: (CPM in media)/[(CPM in media) + (CPM in cells)].

For test [4], the system named is MMG cells. The test can be described thus: [3H]-cholesterol efflux to AmB as acceptor in MMG cells. It is filed as cell-based, Chinese hamster. The note with it: 20 µg/mL AmB. As for the experimental part: as §6
For the next test, the system named is A1G and MMG cell lines. The test can be described thus: Total cellular cholesterol content (Amplex Red) after zaragozic acid treatment. The format is cell-based, Chinese hamster. The note with it: 10 µM ZA in ΔFBS medium 16 h, compared with non-ZA-treated cells cultured in ΔFBS medium. As for the experimental part:
To lower the cholesterol content in the cells, A1G and MMG cell lines were seeded at either 1 × 10^4 cells/well in a 96-well plate (cytotoxicity) or 4 × 10^5 cells/well (cholesterol content) in a 6-well plate in complete Ham’s F-12 medium for 8 h to allow the cells to attach to the plate. Cells were then washed three times with Ham’s F-12 medium supplemented with delipidated serum (Biowest) (ΔFBS medium) and incubated with 10 µM zaragozic acid (ZA) in ΔFBS medium for 16 h at 37 °C, 5% CO2. […]
The cells were harvested, washed three times with PBS and lysed with RIPA buffer (25 mM HEPES, pH 7.4, 150 mM NaCl, 1% NP40, 10 mM MgCl2, 1 mM EDTA, 2% glycerol, protease and phosphatase inhibitor cocktail) for 30 min on ice. […] Total cellular cholesterol level was determined enzymatically by cholesterol oxidase using the Amplex Red Cholesterol Assay Kit (Thermo Fisher Scientific) according to the manufacturer’s recommendations. […] The protein concentration was measured by BCA Assay Kit (Sigma-Aldrich). […] Fluorescence was measured using excitation at 560 nm and emission detection at 590 nm with a Cary Eclipse fluorescence microplate reader (Agilent Technologies). […] The final cholesterol content was calculated in ng of cholesterol per µg of protein.

Consider `C[C@@H]1[C@H](O)[C@@H](C)/C=C/C=C/C=C/C=C/C=C/C=C/C=C/[C@H](O[C@@H]2O[C@H](C)[C@@H](O)[C@H](N)[C@@H]2O)C[C@@H]2O[C@](O)(C[C@@H](O)C[C@@H](O)[C@H](O)CC[C@@H](O)C[C@@H](O)CC(=O)O[C@H]1C)C[C@H](O)[C@H]2C(=O)O` [AmB, Amphotericin B], for which the IC50 (commonly the concentration that gives 50% inhibition) in the test with Raw 264.7 macrophages (Raw 264.7 cells induced with 1 µM GW3965 for 24 h (ABCA1 expression)) worked out at 14.6 µg/mL (≈ 15.7 µM); with Raw 264.7 macrophages (mock (DMSO) control Raw 264.7 cells), 6.18 µg/mL (≈ 6.69 µM); in the test with A1G cells [1] (CHO-K1, 3 h, A1G, complete Ham's F12 medium, AmB 3 h) it was 39.2 ± 4.49 µg/mL (≈ 42.4 µM); in the test with A1G cells [1] (CHO-K1, 6 h, A1G, complete Ham's F12 medium, 6 h AmB), 30.9 ± 1.66 µg/mL (≈ 33.5 µM); with A1G cells [1] (CHO-K1, 16 h, A1G, complete Ham's F12 medium, 16 h AmB), 11.4 ± 0.35 µg/mL (≈ 12.4 µM); with A1G cells [1] (CHO-K1, 16 h, A1G, ΔFBS medium + 10 µM zaragozic acid (ZA) 16 h), 9.75 ± 0.53 µg/mL. Also, the 50% inhibitory concentration (IC50) worked out at 14.4 ± 0.36 µg/mL in the test with A1G cells [1] (CHO-K1, A1G, complete Ham's F12 + 10 µM probucol (2 h pretreatment), AmB 3 h); 21.2 ± 1.09 µg/mL (≈ 22.9 µM) in the test on A1G cells [1] (CHO-K1, A1G, ΔFBS medium (delipidated serum)); 18.9 ± 0.77 µg/mL with A1G cells [1] (CHO-K1, A1G, ΔFBS medium + ZA, reloaded with cholesterol (MβCD complex)); 13.1 ± 1 µg/mL (≈ 14.2 µM) in the test with MMG cells [2] (CHO-K1, 3 h, MMG, complete Ham's F12 medium, AmB 3 h); 10.6 ± 0.48 µg/mL (≈ 11.5 µM) with MMG cells [2] (CHO-K1, 6 h, MMG, complete Ham's F12 medium, 6 h AmB); 6.65 ± 0.28 µg/mL (≈ 7.2 µM) in the test on MMG cells [2] (CHO-K1, 16 h, MMG, complete Ham's F12 medium, 16 h AmB). The IC50 in the test on MMG cells [2] (CHO-K1, 16 h, MMG, ΔFBS medium + 10 µM zaragozic acid (ZA) 16 h) amounted to 10 ± 0.67 µg/mL; in the test with MMG cells [2] (CHO-K1, MMG, complete Ham's F12 + 10 µM probucol (2 h pretreatment), AmB 3 h), 9.47 ± 0.31 µg/mL; in the test on MMG cells [2] (CHO-K1, MMG, ΔFBS medium (delipidated serum)), 10.2 ± 0.42 µg/mL (≈ 11 µM); with MMG cells [2] (CHO-K1, MMG, ΔFBS medium + ZA, reloaded with cholesterol (MβCD complex)), 6.42 ± 0.38 µg/mL; with CHO-K1 wild-type cells, 16.8 µg/mL (≈ 18.1 µM). Also, the “[3H]-cholesterol efflux to AmB” value with A1G cells [3] is given as 5.1%; in the test with MMG cells [4], 0.3%.

With `C=C(CC[C@]12O[C@H](C(=O)O)[C@@](O)(C(=O)O)[C@](C(=O)O)(O1)[C@H](OC(=O)/C=C/[C@@H](C)C[C@@H](C)CC)[C@H]2O)[C@@H](OC(C)=O)[C@H](C)Cc1ccccc1` [zaragozic acid], the “decrease of total cellular cholesterol content” value in the test with A1G and MMG cell lines is “approximately 50%”.
